Experimental data published in the RepoRT retention time repository.

Assay: HILIC, HILICON iHILIC-(P) Classic, HILIC, PEEK, 50 × 2.1 mm, 5 µm, 30 °C, 0.12 mL/min, estimated dead time 0.92 min; A: water + 20 mM ammonium carbonate + 10 mM ammonium hydroxide; B: acetonitrile; gradient (min/%B) 0/90 1/90 21/20 21.5/20 23.5/20 24.5/90 26/90 26.5/90
Conditions: stereoisomer not certain

LC retention time	Compound
12.3 min	Nc1ncnc2c1ncn2C1OC(COP(=O)(O)OP(=O)(O)O)C(O)C1O (stereo not drawn) [ADP]
8.72 min	Nc1ncnc2c1ncn2C1OC(COP(=O)(O)O)C(O)C1O (stereo not drawn) [AMP]
13.5 min	Nc1ncnc2c1ncn2C1OC(COP(=O)(O)OP(=O)(O)OP(=O)(O)O)C(O)C1O (stereo not drawn) [ATP]
8.53 min	CC(=O)SCCNC(=O)CCNC(=O)C(O)C(C)(C)COP(=O)(O)OP(=O)(O)OCC1OC(n2cnc3c(N)ncnc32)C(O)C1OP(=O)(O)O (stereo not drawn) [Acetyl-CoA]
3.45 min	Nc1ncnc2nc[nH]c12 [Adenine]
3.59 min	Nc1ncnc2c1ncn2C1OC(CO)C(O)C1O (stereo not drawn) [Adenosine]
9.17 min	O=C1OC(C(O)CO)C(O)=C1O (stereo not drawn) [Ascorbic Acid]
10.7 min	NC(=O)CC(N)C(=O)O (stereo not drawn) [Asparagine]
3.27 min	O=C(O)CCCCC1SCC2NC(=O)NC21 (stereo not drawn) [Biotin]
13.2 min	Nc1ccn(C2OC(COP(=O)(O)OP(=O)(O)O)C(O)C2O)c(=O)n1 (stereo not drawn) [CDP]
11.1 min	Nc1ccn(C2OC(COP(=O)(O)O)C(O)C2O)c(=O)n1 (stereo not drawn) [CMP]
16.6 min	O=C(O)CC(O)(CC(=O)O)C(=O)O [Citric acid]
11.6 min	NC(CSSCC(N)C(=O)O)C(=O)O (stereo not drawn) [Cystine]
5.88 min	Nc1ccn(C2OC(CO)C(O)C2O)c(=O)n1 (stereo not drawn) [Cytidine]
14.3 min	Nc1nc2ncc(CNc3ccc(C(=O)NC(CCC(=O)O)C(=O)O)cc3)nc2c(=O)[nH]1 (stereo not drawn) [Folic Acid]
16 min	O=P(O)(O)OCC1OC(O)(COP(=O)(O)O)C(O)C1O (stereo not drawn) [Fructose-1,6-bisphosphate]
14.8 min	Nc1nc2c(ncn2C2OC(COP(=O)(O)OP(=O)(O)O)C(O)C2O)c(=O)[nH]1 (stereo not drawn) [GDP]
14.2 min	Nc1nc2c(ncn2C2OC(COP(=O)(O)O)C(O)C2O)c(=O)[nH]1 (stereo not drawn) [GMP]
8.79 min	NC(CCC(=O)NC(CS)C(=O)NCC(=O)O)C(=O)O (stereo not drawn) [GSH]
15.4 min	NC(CCC(=O)NC(CSSCC(NC(=O)CCC(N)C(=O)O)C(=O)NCC(=O)O)C(=O)NCC(=O)O)C(=O)O (stereo not drawn) [GSSG]

LC retention time	Compound
17 min	Nc1nc2c(ncn2C2OC(COP(=O)(O)OP(=O)(O)OP(=O)(O)O)C(O)C2O)c(=O)[nH]1 (stereo not drawn) [GTP]
9.84 min	NC(CCC(=O)O)C(=O)O (stereo not drawn) [Glutamic acid]
8.38 min	NC(=O)CCC(N)C(=O)O (stereo not drawn) [Glutamine]
10.9 min	O=P(O)(O)OCC(O)CO (stereo not drawn) [Glycerol-3-phosphate]
6.51 min	Nc1nc2c(ncn2C2OC(CO)C(O)C2O)c(=O)[nH]1 (stereo not drawn) [Guanosine]
16.1 min	O=C(O)CC(C(=O)O)C(O)C(=O)O (stereo not drawn) [Isocitric acid]
5.8 min	CCC(C)C(N)C(=O)O (stereo not drawn) [Isoleucine]
3.24 min	CC(O)C(=O)O (stereo not drawn) [Lactic Acid]
5.52 min	CC(C)CC(N)C(=O)O (stereo not drawn) [Leucine]
18.8 min	NCCCCC(N)C(=O)O (stereo not drawn) [Lysine]
12.9 min	O=C(O)CC(O)C(=O)O (stereo not drawn) [Malic Acid]
9.18 min	O=C(O)CC(=O)O [Malonic Acid]
5.98 min	CSCCC(N)C(=O)O (stereo not drawn) [Methionine]
9.45 min	CC(=O)NC(CC(=O)O)C(=O)O (stereo not drawn) [N-Acetylaspartic acid]
9.31 min	NC(=O)C1=CN(C2OC(COP(=O)(O)OP(=O)(O)OCC3OC(n4cnc5c(N)ncnc54)C(O)C3O)C(O)C2O)C=CC1 (stereo not drawn) [NADH]
16.9 min	NC(=O)C1=CN(C2OC(COP(=O)(O)OP(=O)(O)OCC3OC(n4cnc5c(N)ncnc54)C(OP(=O)(O)O)C3O)C(O)C2O)C=CC1 (stereo not drawn) [NADPH]
13.4 min	NC(=O)c1ccc[n+](C2OC(COP(=O)(O)OP(=O)(O)OCC3OC(n4cnc5c(N)ncnc54)C(OP(=O)(O)O)C3O)C(O)C2O)c1 (stereo not drawn) [NADP]
9.03 min	NC(=O)c1ccc[n+](C2OC(COP(=O)(O)OP(=O)(O)OCC3OC(n4cnc5c(N)ncnc54)C(O)C3O)C(O)C2O)c1 (stereo not drawn) [NAD]
9.92 min	NC(=O)c1ccc[n+](C2OC(COP(=O)([O-])O)C(O)C2O)c1 (stereo not drawn) [NMN]
2.38 min	O=C(O)c1cccnc1 [Nicotinic acid]

LC retention time	Compound
18.1 min	NCCCC(N)C(=O)O (stereo not drawn) [Ornithine]
13.7 min	C=C(OP(=O)(O)O)C(=O)O [PEP]
5.17 min	NC(Cc1ccccc1)C(=O)O (stereo not drawn) [Phenylalanine]
13.6 min	O=C(O)C(CO)OP(=O)(O)O (stereo not drawn) [Phosphoglyceric acid A]
6.54 min	O=C(O)C1CCCN1 (stereo not drawn) [Proline]
6.61 min	O=C(O)C1(O)CC(O)C(O)C(O)C1 (stereo not drawn) [Quinic Acid]
8.67 min	NC(CO)C(=O)O (stereo not drawn) [Serine]
11.6 min	O=C(O)CCC(=O)O [Succinic Acid]
12.8 min	Cc1ncc(C[n+]2csc(CCO)c2C)c(N)n1 [Thiamine]
8.21 min	CC(O)C(N)C(=O)O (stereo not drawn) [Threonine]
10.9 min	O=C(CO)COP(=O)(O)O [Triose phosphate]
6.14 min	NC(Cc1c[nH]c2ccccc12)C(=O)O (stereo not drawn) [Tryptophan]
6.96 min	NC(Cc1ccc(O)cc1)C(=O)O (stereo not drawn) [Tyrosine]
11.9 min	CC(=O)NC1C(OP(=O)(O)OP(=O)(O)OCC2OC(n3ccc(=O)[nH]c3=O)C(O)C2O)OC(CO)C(O)C1O (stereo not drawn) [UDP-GlcNAc]
12.3 min	O=c1ccn(C2OC(COP(=O)(O)OP(=O)(O)O)C(O)C2O)c(=O)[nH]1 (stereo not drawn) [UDP]
9.35 min	O=c1ccn(C2OC(COP(=O)(O)O)C(O)C2O)c(=O)[nH]1 (stereo not drawn) [UMP]
14.2 min	O=c1ccn(C2OC(COP(=O)(O)OP(=O)(O)OP(=O)(O)O)C(O)C2O)c(=O)[nH]1 (stereo not drawn) [UTP]
6.3 min	CC(C)C(N)C(=O)O (stereo not drawn) [Valine]
